{"source": "patent US10654837B2", "about": "“Sulphamoylaryl derivatives and use thereof as medicaments for the treatment of liver fibrosis” (Janssen Pharmaceutica NV, priority 2017, dated 2020)", "data": [{"target": "T1, 5HTR2B (Homo sapiens, UniProt P41595)", "T1 construct": "host or cells: human Maverick/293 cells", "T1 sequence (P41595 whole entry)": "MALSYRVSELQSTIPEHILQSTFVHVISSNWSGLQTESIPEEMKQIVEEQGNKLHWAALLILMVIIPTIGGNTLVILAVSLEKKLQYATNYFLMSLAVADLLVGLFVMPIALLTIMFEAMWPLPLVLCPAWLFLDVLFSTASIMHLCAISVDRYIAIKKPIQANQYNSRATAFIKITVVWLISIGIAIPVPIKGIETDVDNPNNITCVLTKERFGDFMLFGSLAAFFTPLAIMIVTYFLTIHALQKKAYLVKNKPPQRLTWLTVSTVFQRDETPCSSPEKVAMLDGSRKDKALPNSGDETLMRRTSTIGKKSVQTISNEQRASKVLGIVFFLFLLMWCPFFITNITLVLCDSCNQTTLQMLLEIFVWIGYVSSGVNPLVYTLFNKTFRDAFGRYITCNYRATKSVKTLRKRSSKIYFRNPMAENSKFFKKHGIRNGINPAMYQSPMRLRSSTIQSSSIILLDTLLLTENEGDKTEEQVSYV", "experiment": "5HTR2B antagonist activity, calcium mobilization assay in human Maverick/293 cells (serotonin as agonist)", "format": "cell-based", "conditions": "intracellular calcium, emission 525 nm, read-out: Ca assay IC50", "procedure,_shortened": "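Calcium mobilization read over 80 s at ex 485/em 525 nm after serotonin addition. Before that, 2 h serum-free starvation, 50 min dye loading at 37 °C, and 15-30 min antagonist exposure. IC50 from sigmoidal fit of peak % inhibition.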", "units": {"IC50": "nM"}, "values": [{"smiles": "COc1ccc(S(=O)(=O)N[C@H]2CCOC2)cc1C(=O)Nc1ccc(F)c(C(F)F)c1", "note": "[Compound 167, (S)—N-(3-(Difluoromethyl)-4-fluorophenyl)-2-methoxy-5-(N-(tetrahydrofuran-3-yl)sulfamoyl)benzamide]", "IC50": 0.32}, {"smiles": "COc1ccc(S(=O)(=O)NC2(C(F)(F)F)CC2)cc1C(=O)Nc1ccc(F)c(C)n1", "note": "[Compound 168, N-(5-fluoro-6-methylpyridin-2-yl)-2-methoxy-5-(N-(1-(trifluoromethyl)cyclopropyl)sulfamoyl)benzamide]", "IC50": 3.9}, {"smiles": "COc1ccc(S(=O)(=O)NC2CNC2)cc1C(=O)Nc1ccc(F)c(C)n1", "note": "[Compound 169, 5-(N-(Azetidin-3-yl)sulfamoyl)-N-(5-fluoro-6-methylpyridin-2-yl)-2-Methoxy benzamide]", "IC50": 65}, {"smiles": "COc1ccc(S(=O)(=O)NC2CN(C)C2)cc1C(=O)Nc1ccc(F)c(C)n1", "note": "[Compound 170, N-(5-Fluoro-6-methylpyridin-2-yl)-2-methoxy-5-(N-(1-methylazetidin-3-yl)sulfamoyl)benzamide]", "IC50": 58}, {"smiles": "COc1ccc(S(=O)(=O)N[C@H]2CCOC2)cc1C(=O)Nc1nc(C)c(F)c(Cl)n1", "note": "[Compound 171, (S)—N-(4-chloro-5-fluoro-6-methylpyrimidin-2-yl)-2-methoxy-5-(N-(tetrahydrofuran-3-yl)sulfamoyl)benzamide]", "IC50": 106}, {"smiles": "COc1ccc(S(=O)(=O)N[C@H]2CCOC2)cc1C(=O)Nc1ncc(F)c(C)n1", "note": "[Compound 172, (S)—N-(5-fluoro-4-methylpyrimidin-2-yl)-2-methoxy-5-(N-(tetrahydrofuran-3-yl)sulfamoyl)benzamide]", "IC50": 33}, {"smiles": "COc1ccc(S(=O)(=O)N[C@H]2C[C@@H](O)C2)cc1C(=O)Nc1ccc(F)c(C)c1F", "note": "[Compound 173, N-(2,4-Difluoro-3-methylphenyl)-5-(N-((cis)-3-hydroxycyclobutyl)sulfamoyl)-2-methoxybenzamide]", "IC50": 0.8}, {"smiles": "COc1ccc(S(=O)(=O)N[C@H]2C[C@H](O)C2)cc1C(=O)Nc1ccc(F)c(C(F)F)n1", "note": "[Compound 174a, N-(6-(Difluoromethyl)-5-fluoropyridin-2-yl)-5-(N-((trans)-3-hydroxycyclobutyl)sulfamoyl)-2-methoxybenzamide]", "IC50": 3.9}, {"smiles": "COc1ccc(S(=O)(=O)N[C@H]2C[C@@H](O)C2)cc1C(=O)Nc1ccc(F)c(C(F)F)n1", "note": "[Compound 174b, N-(6-(Difluoromethyl)-5-fluoropyridin-2-yl)-5-(N-((cis)-3-hydroxycyclobutyl)sulfamoyl)-2-methoxybenzamide]", "IC50": 1.7}, {"smiles": "COc1ccc(S(=O)(=O)N[C@H]2CCNC2)cc1C(=O)Nc1ccc(F)c(C)n1", "note": "[Compound 175, (S)—N-(5-Fluoro-6-methylpyridin-2-yl)-2-methoxy-5-(N-(pyrrolidin-3-yl)sulfamoyl)benzamide]", "IC50": 1.6}, {"smiles": "COc1ccc(S(=O)(=O)N[C@H]2CCN(C)C2)cc1C(=O)Nc1ccc(F)c(C)n1", "note": "[Compound 176, (S)—N-(5-Fluoro-6-methylpyridin-2-yl)-2-methoxy-5-(N-(1-methylpyrrolidin-3-yl)sulfamoyl)benzamide]", "IC50": 5}, {"smiles": "COc1ccc(S(=O)(=O)N[C@@H]2CCNC2)cc1C(=O)Nc1ccc(F)c(C)n1", "note": "[Compound 177, (R)—N-(5-Fluoro-6-methylpyridin-2-yl)-2-methoxy-5-(N-(pyrrolidin-3-yl)sulfamoyl)benzamide]", "IC50": 4.2}, {"smiles": "COc1ccc(S(=O)(=O)N[C@H]2CCNC2)cc1C(=O)Nc1ccc(F)cc1", "note": "[Compound 178, (S)—N-(4-Fluorophenyl)-2-methoxy-5-(N-(pyrrolidin-3-yl)sulfamoyl)benzamide]", "IC50": 0.3}, {"smiles": "COc1ccc(S(=O)(=O)N[C@H]2CCNC2)cc1C(=O)Nc1ccccc1Cl", "note": "[Compound 179, (S)—N-(2-Chlorophenyl)-2-methoxy-5-(N-(pyrrolidin-3-yl)sulfamoyl)benzamide]", "IC50": 0.1}, {"smiles": "COc1ccc(S(=O)(=O)N[C@@H]2CCNC2)cc1C(=O)Nc1ccc(F)cc1", "note": "[Compound 180, (R)—N-(4-Fluorophenyl)-2-methoxy-5-(N-(pyrrolidin-3-yl)sulfamoyl)benzamide]", "IC50": 3.3}, {"smiles": "COc1ccc(S(=O)(=O)N[C@@H]2CCNC2)cc1C(=O)Nc1ccc(F)c(C(F)F)c1", "note": "[Compound 181]", "IC50": 4.5}, {"smiles": "COc1ccc(S(=O)(=O)N[C@H]2CCNC2)cc1C(=O)Nc1ccc(F)cc1F", "note": "[Compound 182]", "IC50": 0.3}, {"smiles": "COc1ccc(S(=O)(=O)N[C@H]2CCNC2)cc1C(=O)Nc1ccc(F)c(C(F)F)c1", "note": "[Compound 183, (S)—N-(3-(difluoromethyl)-4-fluorophenyl)-2-methoxy-5-(N-(pyrrolidin-3-yl)sulfamoyl)benzamide]", "IC50": 0.5}, {"smiles": "COc1ccccc1NC(=O)c1cc(S(=O)(=O)N[C@H]2CCNC2)ccc1OC", "note": "[Compound 184, (S)-2-methoxy-N-(2-methoxyphenyl)-5-(N-(pyrrolidin-3-yl)sulfamoyl) benzamide]", "IC50": 0.3}, {"smiles": "COc1ccc(S(=O)(=O)N[C@H]2CCNC2)cc1C(=O)Nc1ccc(Cl)cc1F", "note": "[Compound 185, (S)—N-(4-chloro-2-fluorophenyl)-2-methoxy-5-(N-(pyrrolidin-3-yl)sulfamoyl) benzamide]", "IC50": 0.8}, {"smiles": "COc1ccc(S(=O)(=O)N[C@H]2CCNC2)cc1C(=O)Nc1cc(F)ccc1Cl", "note": "[Compound 186, (S)—N-(2-chloro-5-fluorophenyl)-2-methoxy-5-(N-(pyrrolidin-3-yl)sulfamoyl) benzamide]", "IC50": 0.3}, {"smiles": "COc1ccc(S(=O)(=O)N[C@H]2CCNC2)cc1C(=O)Nc1ccc(F)c(C)c1", "note": "[Compound 187, (S)—N-(4-fluoro-3-methylphenyl)-2-methoxy-5-(N-(pyrrolidin-3-yl)sulfamoyl) benzamide]", "IC50": 0.7}, {"smiles": "COc1ccc(S(=O)(=O)N[C@@H]2CCNC2)cc1C(=O)Nc1ccc(F)cc1F", "note": "[Compound 188, (R)—N-(2,4-difluorophenyl)-2-methoxy-5-(N-(pyrrolidin-3-yl)sulfamoyl) benzamide]", "IC50": 1.6}, {"smiles": "COc1ccc(S(=O)(=O)N(C)[C@H]2CCOC2)cc1C(=O)Nc1ccc(F)c(C)n1", "note": "[Compound 189, (S)—N-(5-fluoro-6-methylpyridin-2-yl)-2-methoxy-5-(N-methyl-N-(tetrahydrofuran-3-yl)sulfamoyl) benzamide]", "IC50": 14}, {"smiles": "[2H]C([2H])([2H])Oc1ccc(S(=O)(=O)N[C@H]2CCOC2)cc1C(=O)Nc1ccc(F)cc1", "note": "[Compound 190, (S)—N-(4-fluorophenyl)-2-(methoxy-d3)-5-(N-(tetrahydrofuran-3-yl)sulfamoyl) benzamide]", "IC50": 0.9}, {"smiles": "[2H]C([2H])([2H])Oc1ccc(S(=O)(=O)N[C@H]2CCOC2)cc1C(=O)Nc1ccc(F)c(C)c1", "note": "[Compound 191, (S)—N-(4-fluoro-3-methylphenyl)-2-(methoxy-d3)-5-(N-(tetrahydrofuran-3-yl)sulfamoyl)benzamide]", "IC50": 1.1}, {"smiles": "[2H]C([2H])([2H])Oc1ccc(S(=O)(=O)N[C@H]2CCOC2)cc1C(=O)Nc1ccc(F)c(C(F)F)c1", "note": "[Compound 192, (S)—N-(3-(Difluoromethyl)-4-fluorophenyl)-2-(methoxy-d3)-5-(N-(tetrahydrofuran-3-yl)sulfamoyl)benzamide]", "IC50": 0.4}, {"smiles": "[2H]C([2H])([2H])Oc1ccc(S(=O)(=O)N[C@H]2CCOC2)cc1C(=O)Nc1ccc(F)cn1", "note": "[Compound 193, (S)—N-(5-fluoropyridin-2-yl)-2-(methoxy-d3)-5-(N-(tetrahydrofuran-3-yl)sulfamoyl)benzamide]", "IC50": 3.2}, {"smiles": "[2H]C([2H])([2H])Oc1ccc(S(=O)(=O)N[C@H]2CCOC2)cc1C(=O)Nc1ccc(F)c(C)n1", "note": "[Compound 194, (S)—N-(5-fluoro-6-methylpyridin-2-yl)-2-(methoxy-d3)-5-(N-(tetrahydrofuran-3-yl)sulfamoyl)benzamide]", "IC50": 1.1}, {"smiles": "[2H]C([2H])([2H])Oc1ccc(S(=O)(=O)N[C@H]2CCOC2)cc1C(=O)Nc1ccc(F)c(C2CC2)n1", "note": "[Compound 195, (S)—N-(6-cyclopropyl-5-fluoropyridin-2-yl)-2-(methoxy-d3)-5-(N-(tetrahydrofuran-3-yl)sulfamoyl)benzamide]", "IC50": 0.9}, {"smiles": "[2H]C([2H])([2H])Oc1ccc(S(=O)(=O)N[C@H]2CCOC2)cc1C(=O)Nc1ncc(F)cc1F", "note": "[Compound 196, (S)—N-(3,5-difluoropyridin-2-yl)-2-(methoxy-d3)-5-(N-(tetrahydrofuran-3-yl)sulfamoyl)benzamide]", "IC50": 19}, {"smiles": "Cc1nc(NC(=O)c2cc(S(=O)(=O)N[C@H]3CCOC3)ccc2OC(C)C)ccc1F", "note": "[Compound 197, (S)—N-(5-fluoro-6-methylpyridin-2-yl)-2-isopropoxy-5-(N-(tetrahydrofuran-3-yl)sulfamoyl)benzamide]", "IC50": 5.3}, {"smiles": "CCOc1ccc(S(=O)(=O)N[C@H]2CCOC2)cc1C(=O)Nc1ccc(F)c(C)n1", "note": "[Compound 198, (S)-2-ethoxy-N-(5-fluoro-6-methylpyridin-2-yl)-5-(N-(tetrahydrofuran-3-yl)sulfamoyl)benzamide]", "IC50": 0.7}, {"smiles": "CCCOc1ccc(S(=O)(=O)N[C@H]2CCOC2)cc1C(=O)Nc1ccc(F)c(C)n1", "note": "[Compound 199, (S)—N-(5-fluoro-6-methylpyridin-2-yl)-2-propoxy-5-(N-(tetrahydrofuran-3-yl)sulfamoyl) benzamide]", "IC50": 3.7}, {"smiles": "COc1c(F)cc(S(=O)(=O)N[C@H]2CCOC2)cc1C(=O)Nc1ccc(F)c(C)c1", "note": "[Compound 200, (S)-3-fluoro-N-(4-fluoro-3-methylphenyl)-2-methoxy-5-(N-(tetrahydrofuran-3-yl)sulfamoyl)benzamide]", "IC50": 3.3}, {"smiles": "COc1cc(F)c(S(=O)(=O)N[C@H]2CCOC2)cc1C(=O)Nc1ccc(F)c(C)c1", "note": "[Compound 201, (S)-4-fluoro-N-(4-fluoro-3-methylphenyl)-2-methoxy-5-(N-(tetrahydrofuran-3-yl)sulfamoyl)benzamide]", "IC50": 8.6}, {"smiles": "COc1ccc(S(=O)(=O)N[C@H]2CCOC2)cc1NC(=O)c1ccc(F)c(C)c1", "note": "[Compound 203, (S)-4-Fluoro-N-(2-methoxy-5-(N-(tetrahydrofuran-3-yl)sulfamoyl)phenyl)-3-methylbenzamide]", "IC50": 13}]}]}
